Source: US4338445A, “N-(Carbonylamino)-tetrahydropyridyl derivatives” (Canadian Patents & Development Limited, priority 1979, dated 1982)
Entries after “also recorded” stand apart in the source; their conditions may differ. Read-outs that look alike come from different tables or passages of the source.

How the values were obtained:
[1] = test system: phenylquinone-induced muscular writhing; test: Analgesic activity, phenylquinone-writhing test; type: in vivo, Swiss albino mice; details: for Physiological activity: analgesic (in words): mouse, in vivo
Protocol: (§1) The compounds of formula (1) have anti-inflammatory, analgesic, hyperglycemic, and/or hypoglycemic properties. […] A. Winter, p.190-202, Int. Symposium on Non-Steroidal Anti-Inflammatory Drugs, Milan, 1964, Excerpta Medica Foundation, Amsterdam. […] J. Pharmac. Chemother. 32, 295 (1968). […] Chem. 3, 99 (1961) and by Barthelmai et al., in Klin. Wchschr. 40, 585 (1962).
(§2) Initially the activity of the compound tested on an animal was determined at a single dose. If the substance was active at this dose, it was subjected to limited repeat testing. If the presence of activity was confirmed by repetition of the testing, a dose response relation was constructed and the effective dose (ED50) determined. If toxicity was encountered with the initial dose, the dose was reduced until one was reached which was tolerated by the animals tested.
Substances were administered subcutaneously to five Swiss albino mice, weighing 18 to 22 grams, before determining their activity in the phenylquinone-writhing test (see Collier et al, cited above). The active ingredients were suspended in a solution of physiological saline and "Tween 80™" surfactant. A dose amounting to 10 milliliters of physiological saline solution and active ingredient per kilogram of bodyweight was administered to the mice according to the dosage as set out in Table 2. The test results are shown in Table 2, the compounds tested being compared to Aspirin™ and dextropropoxyphene™.

blood glucose = test: Determination of blood glucose (hyperglycemic / hypoglycemic activity); type: in vivo, Wistar rats; details: for % change in blood-glucose concentrations, post-treatment 2 hours / % change in blood-glucose concentrations, post-treatment 4 hours / ED50: oral, fasted rats; for % change in blood-glucose concentrations, post-treatment 2 hours / % change in blood-glucose concentrations, post-treatment 4 hours: 100 mg/kg; for Physiological activity: hypoglycemic (in words) / Physiological activity: hyperglycemic (in words): rat, in vivo; for ED50: Rattus norvegicus, dose elevating blood glucose by 50 percent
Protocol: as §1, §2
Compounds were suspended in distilled water and were administered orally to overnight-fasted Wistar rats. Capillary blood samples were obtained from the tail at zero, two, and four hours post-treatment and the sera derived from these samples were analyzed for glucose by spectrophotometric determination of enzymatically produced NADH2 (reduced form of nicotinamide adenine dinucleotide), using the commercial reagent "Escalab G-15™" according to the method described by Holland et al and by Barthelmai et al, both cited above. The test results are shown in Tables 4 and 5, and the ED50 values shown in Table 4 were calculated as the dose of compound which elevated blood glucose levels by 50 percent.

[2] = test system: carrageenan-induced paw edema; test: Anti-inflammatory activity, carrageenan-induced paw edema; parameters: species or system Sprague-Dawley rats; details: rat, in vivo
Protocol: as §1, §2
Substances were administered subcutaneously to six Sprague-Dawley rats, weighing 100-120 g. A suspension of 0.03% carageenan was injected under the plantar skin of a hind paw. The increase in volume of the inflamed paw was measured 3 and 5 hours after drug administration.

[3] = Mus musculus, sc, mice, 128 mg/kg, read-out: Response % inhibition
[4] = Mus musculus, sc, mice, read-out: Response % inhibition
[5] = Mus musculus, sc, mice, Litchfield and Wilcoxon, read-out: ED50
[6] = 2 hours, read-out: ED50, hyperglycemic activity, post-treatment 2 hours
[7] = 4 hours, read-out: ED50, hyperglycemic activity, post-treatment 4 hours

COc1ccc(C(=O)NN2CC=CCC2)cc1 [Compound A-77, N-(4-methoxyphenylcarbonylamino)-1,2,3,6-tetrahydropyridine]
inhibition in vivo at 128 mg/kg [1, 3]: 31.4%
Physiological activity: analgesic (in words) [1]: analgesic
% change in blood-glucose concentrations, post-treatment 2 hours (blood glucose; 2 hours): -69%
% change in blood-glucose concentrations, post-treatment 4 hours (blood glucose; 4 hours): -26%
Physiological activity: hypoglycemic (in words) (blood glucose): potent hypoglycemic activity

Cc1ccc(C(=O)NN2CC=CCC2)cc1 [Compound A-78, N-(4-methylphenylcarbonylamino)-1,2,3,6-tetrahydropyridine]
inhibition in vivo at 64 mg/kg [1, 4]: 92.4%
Physiological activity: analgesic (in words) [1]: active analgesics; also recorded: analgesic
% change in blood-glucose concentrations, post-treatment 2 hours (blood glucose; 2 hours): -73%
% change in blood-glucose concentrations, post-treatment 4 hours (blood glucose; 4 hours): -41%
Physiological activity: hypoglycemic (in words) (blood glucose): potent hypoglycemic activity

O=C(CCc1ccccc1)NN1CC=CCC1 [Compound A-55, N-(phenylethylcarbonylamino)-1,2,3,6-tetrahydropyridine]
inhibition in vivo at 120 mg/kg [1, 4]: 42%
Physiological activity: analgesic (in words) [1]: analgesic
Physiological activity: anti-inflammatory (in words) [2]: striking anti-inflammatory action, comparing favourably with the standard compound used

CCCNC(=O)NS(=O)(=O)c1ccc(Cl)cc1 [Chlorpropamide, reference compound]
% change in blood-glucose concentrations, post-treatment 2 hours (blood glucose; 2 hours): > -40%
% change in blood-glucose concentrations, post-treatment 4 hours (blood glucose; 4 hours): > -40%

O=C(NN1CC=CCC1)c1ccc(Cl)c(Cl)c1 [Compound A-80, N-(3,4-dichlorophenylcarbonylamino)-1,2,3,6-tetrahydropyridine]
inhibition in vivo at 128 mg/kg [1, 3]: 72%
Physiological activity: analgesic (in words) [1]: active analgesics; also recorded: analgesic
% change in blood-glucose concentrations, post-treatment 2 hours (blood glucose; 2 hours): -50%
% change in blood-glucose concentrations, post-treatment 4 hours (blood glucose; 4 hours): -50%
Physiological activity: hypoglycemic (in words) (blood glucose): potent hypoglycemic activity

COC(=O)N1C=CC(C(=O)NN2CC=CCC2)=CC1 [Compound A-45, N-[4-(1-methoxycarbonyl-1,2-dihydropyridyl)carbonylamino]-1,2,3,6-tetrahydropyridine]
inhibition in vivo at 16 mg/kg [1, 4]: 61%
inhibition in vivo at 32 mg/kg [1, 4]: 61%
inhibition in vivo at 128 mg/kg [1, 3]: 97%
inhibition in vivo at 256 mg/kg [1, 4]: 95%
Physiological activity: analgesic (in words) [1]: active analgesics; also recorded: analgesic
Physiological activity: anti-inflammatory (in words) [2]: striking anti-inflammatory action, comparing favourably with the standard compound used

O=C(Cc1cccnc1)NN1CC=CCC1 [Compound A-48, N-(3-picolylcarbonylamino)-1,2,3,6-tetrahydropyridine]
inhibition in vivo at 8 mg/kg ([1]; Mus musculus, sc, mice, 8 mg/kg, read-out: Response % inhibition): 28%
inhibition in vivo at 16 mg/kg [1, 4]: 45%
inhibition in vivo at 32 mg/kg [1, 4]: 94%
inhibition in vivo at 128 mg/kg [1, 3]: 100%
inhibition in vivo at 256 mg/kg [1, 4]: 100%
ED50 [1, 5]: 14.5 mg/kg
Physiological activity: analgesic (in words) [1]: active analgesics; also recorded: analgesic
Physiological activity: anti-inflammatory (in words) [2]: striking anti-inflammatory action, comparing favourably with the standard compound used

CN1CC=C(C(=O)NN2CC=CCC2)CC1 [Compound A-50, N-[4-(1-methyl-1,2,3,6-tetrahydropyridyl)carbonylamino]-1,2,3,6-tetrahydropyridine]
inhibition in vivo at 256 mg/kg [1, 4]: 47%
Physiological activity: analgesic (in words) [1]: analgesic

O=C(NN1CC=CCC1)c1ccc(Cl)cc1 [Compound A-79, N-(4-chlorophenylcarbonylamino)-1,2,3,6-tetrahydropyridine]
inhibition in vivo at 64 mg/kg [1, 4]: 33.9%
Physiological activity: analgesic (in words) [1]: analgesic
% change in blood-glucose concentrations, post-treatment 4 hours (blood glucose; 4 hours): -26%
Physiological activity: hypoglycemic (in words) (blood glucose): potent hypoglycemic activity

CC(=O)Oc1ccccc1C(=O)O [Aspirin, reference compound]
ED50 ([1]; Mus musculus, sc): 52 mg/kg

N-(benzoylamino)-3(diethylaminocarbonyl)-1,2,3,6-tetrahydropyridine [Compound A-43]
Physiological activity: analgesic (in words) [1]: analgesic
Response % inhibition ([1]; s.c., mice, 128 mg/kg): 39.0%

O=C(NN1CC=CCC1)c1cccc[n+]1[O-] [Compound A-36, N-(2-pyridylcarbonylamino-1-oxide)-1,2,3,6-tetrahydropyridine]
inhibition in vivo at 128 mg/kg [1, 3]: 55.3%
Physiological activity: analgesic (in words) [1]: analgesic
Physiological activity: anti-inflammatory (in words) [2]: anti-inflammatory

COC(=O)N1CC=C(C(=O)NN2CC=CCC2)CC1 [Compound A-49, N-[4-(1-methoxycarbonyl-1,2,3,6-tetrahydropyridyl)carbonylamino]-1,2,3,6-tetrahydropyridine]
inhibition in vivo at 64 mg/kg [1, 4]: 3%
inhibition in vivo at 128 mg/kg [1, 3]: 78%
inhibition in vivo at 256 mg/kg [1, 4]: 95%
Physiological activity: analgesic (in words) [1]: active analgesics; also recorded: analgesic
Physiological activity: anti-inflammatory (in words) [2]: anti-inflammatory

O=C(COc1ccccc1)NN1CC=CCC1 [Compound A-62, N-(phenoxymethylenecarbonylamino)-1,2,3,6-tetrahydropyridine]
inhibition in vivo at 25 mg/kg ([1]; Mus musculus, sc, mice, 25 mg/kg, read-out: Response % inhibition): 50%
ED50 [1, 5]: 25 mg/kg
Physiological activity: analgesic (in words) [1]: active analgesics; also recorded: analgesic
Physiological activity: anti-inflammatory (in words) [2]: striking anti-inflammatory action, comparing favourably with the standard compound used
ED50 (blood glucose; [6]): 41 mg/kg
ED50 (blood glucose; [7]): 53 mg/kg
Physiological activity: hyperglycemic (in words) (blood glucose): significant hyperglycemic activity; also recorded: hypergylcemic

O=C(NN1CC=CCC1)C1CCCCC1 [Compound A-63, N-(cyclohexylcarbonylamino)-1,2,3,6-tetrahydropyridine]
inhibition in vivo at 16.5 mg/kg ([1]; Mus musculus, sc, mice, 16.5 mg/kg, read-out: Response % inhibition): 50%
ED50 [1, 5]: 16.5 mg/kg
Physiological activity: analgesic (in words) [1]: active analgesics; also recorded: analgesic
Physiological activity: anti-inflammatory (in words) [2]: striking anti-inflammatory action, comparing favourably with the standard compound used
ED50 (blood glucose; [6]): 36.5 mg/kg
ED50 (blood glucose; [7]): 53 mg/kg
Physiological activity: hyperglycemic (in words) (blood glucose): significant hyperglycemic activity

CCC(=O)O[C@](Cc1ccccc1)(c1ccccc1)[C@H](C)CN(C)C [Dextropropoxyphene, reference compound]
ED50 ([1]; Mus musculus, sc): 56 mg/kg

O=C(Cc1ccc2c(c1)OCO2)NN1CC=CCC1 [Compound A-70, N-(3,4-methylenedioxyphenylmethylenecarbonylamino)-1,2,3,6-tetrahydropyridine]
inhibition in vivo at 60 mg/kg ([1]; Mus musculus, sc, mice, 60 mg/kg, read-out: Response % inhibition): 80%
inhibition in vivo at 120 mg/kg [1, 4]: 91%
Physiological activity: analgesic (in words) [1]: active analgesics; also recorded: analgesic
